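Growth conditions: 96-well plates. Treatment: test compound, 48 hours, 5 concentrations. Analysis: linear interpolation between bracketing concentrations; unreached endpoints set to highest concentration. Abbreviation: GI50, concentration required for 50% inhibition of growth.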 Active and inactive are the calls of the source. Cut-off read from the data, not from the text of the source: active = GI50 up to about 1.1 µM and inactive = higher.
What was measured:
Experiment in all cases: NCI tumour cell line growth inhibition, 48 h
BT-549 = system: BT-549
COLO 205 = system: COLO 205
HCT-116 = system: HCT-116
HOP-62 = system: HOP-62
KM12 = system: KM12
M14 = system: M14
MDA-MB-435 = system: MDA-MB-435
NCI-H226 = system: NCI-H226
NCI-H522 = system: NCI-H522
OVCAR-8 = system: OVCAR-8
SF-295 = system: SF-295
SF-539 = system: SF-539
SK-MEL-2 = system: SK-MEL-2
SK-MEL-5 = system: SK-MEL-5
SNB-19 = system: SNB-19
SR = system: SR
SW-620 = system: SW-620
T47D = system: T47D
U-251 = system: U-251
UACC-257 = system: UACC-257

Compound	GI50 (BT-549)	GI50 (COLO 205)	GI50 (HCT-116)	GI50 (HOP-62)	GI50 (KM12)	GI50 (M14)	GI50 (MDA-MB-435)	GI50 (NCI-H226)	GI50 (NCI-H522)	GI50 (OVCAR-8)	GI50 (SF-295)	GI50 (SF-539)	GI50 (SK-MEL-2)	GI50 (SK-MEL-5)	GI50 (SNB-19)	GI50 (SR)	GI50 (SW-620)	GI50 (T47D)	GI50 (U-251)	GI50 (UACC-257)
Sc1nc2c(c(-c3nc(S)nc4c3CCCCCCCCCC4)n1)CCCCCCCCCC2	> 100 µM (inactive)	> 100 µM (inactive)	> 100 µM (inactive)	> 100 µM (inactive)	> 100 µM (inactive)	> 100 µM (inactive)	> 100 µM (inactive)	> 100 µM (inactive)	> 100 µM (inactive)	> 100 µM (inactive)	> 100 µM (inactive)	> 100 µM (inactive)	> 100 µM (inactive)	> 100 µM (inactive)	> 100 µM (inactive)	> 100 µM (inactive)	> 100 µM (inactive)	> 100 µM (inactive)	> 100 µM (inactive)	> 100 µM (inactive)
COC(=O)C(Cc1c[nH]c2ccccc12)NP(=O)(O)OCC1OC(n2cc(F)c(=O)[nH]c2=O)CC1O (stereo not given)	> 100 µM (inactive)	> 100 µM (inactive)	14.5 µM (inactive)	25.9 µM (inactive)	> 96.2 µM (inactive)	30.8 µM (inactive)	> 100 µM (inactive)	> 100 µM (inactive)	> 100 µM (inactive)	65.9 µM (inactive)	> 91.2 µM (inactive)	4.71 µM (inactive)	> 100 µM (inactive)	77.3 µM (inactive)	40.8 µM (inactive)	5.02 µM (inactive)	> 100 µM (inactive)	> 32.5 µM (inactive)	> 100 µM (inactive)	> 100 µM (inactive)
COc1ccc2oc(=O)c3c(c2c1C)OC(C)(C)C=C3	> 100 µM (inactive)	> 100 µM (inactive)	> 100 µM (inactive)	> 100 µM (inactive)	> 100 µM (inactive)	> 100 µM (inactive)	> 100 µM (inactive)	> 100 µM (inactive)	> 100 µM (inactive)	> 100 µM (inactive)	> 100 µM (inactive)	> 100 µM (inactive)	> 100 µM (inactive)	> 100 µM (inactive)	> 100 µM (inactive)	> 100 µM (inactive)	> 100 µM (inactive)	> 100 µM (inactive)	> 100 µM (inactive)	> 100 µM (inactive)
COc1cc2c(NCCCCCCO[N+](=O)[O-])ncnc2c(OC)c1OC	23.1 µM (inactive)	21.4 µM (inactive)	20.6 µM (inactive)	26.6 µM (inactive)	16.2 µM (inactive)	16.9 µM (inactive)	18.1 µM (inactive)	16 µM (inactive)	19.7 µM (inactive)	23.9 µM (inactive)	21.1 µM (inactive)	24.7 µM (inactive)	21.6 µM (inactive)	11.9 µM (inactive)	66.5 µM (inactive)	9.75 µM (inactive)	26.2 µM (inactive)	23.8 µM (inactive)	35.2 µM (inactive)	17.8 µM (inactive)
CCCCCCCC1C(C)c2c([nH]c3ccccc23)C2C(=O)N(c3ccc(OC)cc3)C(=O)C21 (stereo not given)	2.11 µM (inactive)	3.78 µM (inactive)	1.79 µM (inactive)	2.7 µM (inactive)	6.34 µM (inactive)	2.74 µM (inactive)	3.33 µM (inactive)	3.1 µM (inactive)	4.48 µM (inactive)	2.52 µM (inactive)	2.58 µM (inactive)	2.69 µM (inactive)	> 6.59 µM (inactive)	> 6.22 µM (inactive)	3.31 µM (inactive)	2.84 µM (inactive)	3.02 µM (inactive)	3.79 µM (inactive)	1.92 µM (inactive)	2.64 µM (inactive)
O=[N+]([O-])c1ccc(-c2cn(-c3ccc(Cl)cc3)cn2)cc1	59.2 µM (inactive)	> 100 µM (inactive)	27.4 µM (inactive)	18.2 µM (inactive)	> 100 µM (inactive)	> 100 µM (inactive)	> 100 µM (inactive)	48.5 µM (inactive)	3.76 µM (inactive)	36.6 µM (inactive)	18.7 µM (inactive)	3.8 µM (inactive)	> 100 µM (inactive)	34.2 µM (inactive)	67 µM (inactive)	> 100 µM (inactive)	> 100 µM (inactive)	44.2 µM (inactive)	31.8 µM (inactive)	> 100 µM (inactive)
Cc1nc2ccccc2c(=O)n1/N=C/c1ccc(N(C)C)cc1	46 µM (inactive)	> 100 µM (inactive)	> 100 µM (inactive)	34.2 µM (inactive)	> 100 µM (inactive)	> 100 µM (inactive)	> 100 µM (inactive)	> 100 µM (inactive)	15.6 µM (inactive)	53.5 µM (inactive)	43.6 µM (inactive)	> 100 µM (inactive)	> 100 µM (inactive)	> 100 µM (inactive)	24.8 µM (inactive)	> 100 µM (inactive)	> 100 µM (inactive)	> 100 µM (inactive)	45 µM (inactive)	> 100 µM (inactive)
C[C@]12CC[C@@H]3c4ccc(OCC(=O)O)cc4CC[C@H]3[C@@H]1CCC2=O	> 100 µM (inactive)	> 100 µM (inactive)	> 100 µM (inactive)	> 100 µM (inactive)	> 100 µM (inactive)	> 100 µM (inactive)	> 100 µM (inactive)	> 100 µM (inactive)	> 100 µM (inactive)	> 100 µM (inactive)	> 100 µM (inactive)	> 100 µM (inactive)	> 100 µM (inactive)	> 100 µM (inactive)	> 100 µM (inactive)	> 100 µM (inactive)	> 100 µM (inactive)	> 100 µM (inactive)	> 100 µM (inactive)	> 100 µM (inactive)
C=C(CN(C)C)C(=O)c1ccccc1OC	17.4 µM (inactive)	3.53 µM (inactive)	15.6 µM (inactive)	> 52.8 µM (inactive)	25.3 µM (inactive)	12 µM (inactive)	19.5 µM (inactive)	37.2 µM (inactive)	2.04 µM (inactive)	21.6 µM (inactive)	> 56.9 µM (inactive)	15.6 µM (inactive)	14.4 µM (inactive)	17.1 µM (inactive)	44.4 µM (inactive)	10.2 µM (inactive)	4.31 µM (inactive)	15 µM (inactive)	24.5 µM (inactive)	15.6 µM (inactive)
COc1cc(/C=C2/SC(c3ccccc3)N(c3ccc(Cl)cc3)C2=O)cc(OC)c1OC (stereo not given)	> 59 µM (inactive)	1.3 µM (inactive)	0.897 µM (active)	> 29.4 µM (inactive)	5.46 µM (inactive)	0.964 µM (active)	0.436 µM (active)	> 100 µM (inactive)	18.3 µM (inactive)	> 100 µM (inactive)	3.27 µM (inactive)	> 100 µM (inactive)	> 20.6 µM (inactive)	0.638 µM (active)	> 58.2 µM (inactive)	7.6 µM (inactive)	57.4 µM (inactive)	3.94 µM (inactive)	> 72.6 µM (inactive)	47.2 µM (inactive)
CN1/C(=C\N=O)C(C)(C)N(O)C1(C)C	> 100 µM (inactive)	> 100 µM (inactive)	> 100 µM (inactive)	> 100 µM (inactive)	> 100 µM (inactive)	> 100 µM (inactive)	> 100 µM (inactive)	> 100 µM (inactive)	> 100 µM (inactive)	> 100 µM (inactive)	> 100 µM (inactive)	> 100 µM (inactive)	> 100 µM (inactive)	> 100 µM (inactive)	> 100 µM (inactive)	> 100 µM (inactive)	> 100 µM (inactive)	> 100 µM (inactive)	> 100 µM (inactive)	> 100 µM (inactive)
O=C1CC(Sc2nc3ccc(I)cc3c(=O)n2Cc2ccccc2)C(=O)NN1 (stereo not given)	15.7 µM (inactive)	19.1 µM (inactive)	15.7 µM (inactive)	17.4 µM (inactive)	17.2 µM (inactive)	19.6 µM (inactive)	17.7 µM (inactive)	5.89 µM (inactive)	1.94 µM (inactive)	14.4 µM (inactive)	18.2 µM (inactive)	18.2 µM (inactive)	17.1 µM (inactive)	16.2 µM (inactive)	19.3 µM (inactive)	2.73 µM (inactive)	18 µM (inactive)	15.2 µM (inactive)	15.9 µM (inactive)	18.3 µM (inactive)
Nc1ccc2c(=O)cc(-c3cccs3)[nH]c2n1	4.88 µM (inactive)	0.716 µM (active)	1.25 µM (inactive)	7.31 µM (inactive)	0.535 µM (active)	1.6 µM (inactive)	0.285 µM (active)	2.42 µM (inactive)	1.36 µM (inactive)	2.86 µM (inactive)	3.1 µM (inactive)	1.48 µM (inactive)	6.32 µM (inactive)	1.03 µM (active)	7.38 µM (inactive)	0.151 µM (active)	1.01 µM (active)	3.13 µM (inactive)	2.75 µM (inactive)	5.9 µM (inactive)
O=[N+]([O-])c1cc(F)ccc1S(=O)(=O)c1ccccc1	> 10 µM (inactive)	> 10 µM (inactive)	> 10 µM (inactive)	> 10 µM (inactive)	> 10 µM (inactive)	> 10 µM (inactive)	> 10 µM (inactive)	> 10 µM (inactive)	2.22 µM (inactive)	> 10 µM (inactive)	> 10 µM (inactive)	> 10 µM (inactive)	> 10 µM (inactive)	> 10 µM (inactive)	> 10 µM (inactive)	> 10 µM (inactive)	> 10 µM (inactive)	> 10 µM (inactive)	> 10 µM (inactive)	> 10 µM (inactive)
